Tests used:
[1] = target: T1, human toll like receptor 8 (hTLR8) (Homo sapiens, UniProt Q9NR97); assay: hTLR8 in-vitro functional assay (HEK-Blue hTLR8 SEAP reporter); assay type: cell-based; details: HEK-Blue hTLR8 cells, overnight incubation
T1 construct: host or cells: HEK293 (HEK-Blue hTLR8)
T1 sequence (Q9NR97 27-1041): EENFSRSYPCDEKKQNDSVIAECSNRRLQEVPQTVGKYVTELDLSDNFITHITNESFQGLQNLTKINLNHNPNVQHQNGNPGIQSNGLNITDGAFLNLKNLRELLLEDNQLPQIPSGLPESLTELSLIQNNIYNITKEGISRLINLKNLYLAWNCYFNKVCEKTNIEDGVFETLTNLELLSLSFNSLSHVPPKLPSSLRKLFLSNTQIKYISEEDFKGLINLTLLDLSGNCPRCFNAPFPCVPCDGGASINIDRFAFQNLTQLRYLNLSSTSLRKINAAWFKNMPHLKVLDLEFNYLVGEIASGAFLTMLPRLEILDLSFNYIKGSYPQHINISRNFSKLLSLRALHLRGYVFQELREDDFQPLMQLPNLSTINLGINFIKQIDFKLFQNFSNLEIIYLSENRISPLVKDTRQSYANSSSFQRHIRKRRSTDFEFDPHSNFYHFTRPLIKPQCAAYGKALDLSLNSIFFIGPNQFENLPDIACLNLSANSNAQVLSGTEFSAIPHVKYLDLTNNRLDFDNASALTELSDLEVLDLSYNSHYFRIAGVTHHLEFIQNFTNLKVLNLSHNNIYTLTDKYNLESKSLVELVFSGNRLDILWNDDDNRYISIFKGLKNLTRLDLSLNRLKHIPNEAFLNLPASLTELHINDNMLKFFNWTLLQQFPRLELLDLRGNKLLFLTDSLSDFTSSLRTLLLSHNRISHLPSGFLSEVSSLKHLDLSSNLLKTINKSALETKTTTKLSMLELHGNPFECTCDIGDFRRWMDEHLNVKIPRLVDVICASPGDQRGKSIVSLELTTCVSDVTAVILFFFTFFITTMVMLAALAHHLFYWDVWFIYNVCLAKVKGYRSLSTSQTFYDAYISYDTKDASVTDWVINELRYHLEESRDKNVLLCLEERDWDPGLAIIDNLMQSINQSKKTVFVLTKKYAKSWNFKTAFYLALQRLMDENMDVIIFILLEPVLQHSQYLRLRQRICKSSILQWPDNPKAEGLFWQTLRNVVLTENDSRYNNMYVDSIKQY
From the text: (§1) To determine the ability of test compounds to activate the human toll like receptor 7 (hTLR7) or human toll like receptor 8 (hTLR8), cell-based reporter systems were utilized. HEK293 cells stably overexpressing either hTLR7 or hTLR8 along with a reporter gene containing an optimized secreted embryonic alkaline phosphatase gene (SEAP), under the control of the IFN-b minimal promoter fused to five NF-kB and AP-1-binding sites, were obtained from Invivogen (HEK-Blue™ hTLR7, cat #Hkb-htlr7; HEK-Blue™ hTLR8, cat #Hkb-htlr8). Stimulation of hTLR7 or hTLR8 in these cells activates NF-kB and AP-1 and induces the production of SEAP which can be quantified using an alkaline phosphatase detection reagent.
(§2) On day one of the assay, compounds were prepared using 11-point half-log serial dilutions from a 10 mM DMSO stock solution and 50 nL was spotted into 384-well plates (PerkinElmer, cat #6007480). Positive and negative controls were also spotted within the assay plate and were used to determine percent effect during the analysis process. After resuspension in DMEM assay media containing FBS heat inactivated (10%), Glutamax (2 mM) and Penicillin/Streptomycin, 10,000 cells/20 ul/well were added to previously prepared compound plates. Plates were incubated overnight (16-20 hrs) at 37° C. in a 5% CO2 environment. Prewetted Microclime lids (Labcyte, LLS-0310) were used to prevent evaporation. On day two of the assay, QUANTI-Blue™ detection reagent was prepared by reconstituting QUANTI-Blue™ powder (InvivoGen, Rep-qb1) with 100 ml of sterile water and allowed to equilibrate to 37° C. for 15 minutes. 20 ul of QUANTI-Blue™ detection reagent was added to each well and plates were incubated at room temperature for 180 min. At the end of the incubation, plates were read on an Envision (Perkin Elmer) plate reader capturing absorbance at 650 nm.
(§3) Using Positive (tool compound) and Negative (DMSO) controls, the percent (%) effect was calculated for each sample using the following equation: […]
(§4) The % effect at each concentration of compound was calculated utilizing the ABase software suite (IBDS) and was relative to the amount of SEAP produced in the positive and negative control wells contained within each assay plate. The concentrations and % effect values for test compounds were fit using a 4-parameter logistic model in ABase and the concentration of compound that produced 50% response (EC50) was calculated.

[2] = target: T2, human toll like receptor 7 (hTLR7) (Homo sapiens, UniProt Q9NYK1); assay: hTLR7 in-vitro functional assay (HEK-Blue hTLR7 SEAP reporter); assay type: cell-based; details: HEK-Blue hTLR7 cells, overnight incubation
T2 construct: host or cells: HEK293 (HEK-Blue hTLR7)
T2 sequence (Q9NYK1 27-1049): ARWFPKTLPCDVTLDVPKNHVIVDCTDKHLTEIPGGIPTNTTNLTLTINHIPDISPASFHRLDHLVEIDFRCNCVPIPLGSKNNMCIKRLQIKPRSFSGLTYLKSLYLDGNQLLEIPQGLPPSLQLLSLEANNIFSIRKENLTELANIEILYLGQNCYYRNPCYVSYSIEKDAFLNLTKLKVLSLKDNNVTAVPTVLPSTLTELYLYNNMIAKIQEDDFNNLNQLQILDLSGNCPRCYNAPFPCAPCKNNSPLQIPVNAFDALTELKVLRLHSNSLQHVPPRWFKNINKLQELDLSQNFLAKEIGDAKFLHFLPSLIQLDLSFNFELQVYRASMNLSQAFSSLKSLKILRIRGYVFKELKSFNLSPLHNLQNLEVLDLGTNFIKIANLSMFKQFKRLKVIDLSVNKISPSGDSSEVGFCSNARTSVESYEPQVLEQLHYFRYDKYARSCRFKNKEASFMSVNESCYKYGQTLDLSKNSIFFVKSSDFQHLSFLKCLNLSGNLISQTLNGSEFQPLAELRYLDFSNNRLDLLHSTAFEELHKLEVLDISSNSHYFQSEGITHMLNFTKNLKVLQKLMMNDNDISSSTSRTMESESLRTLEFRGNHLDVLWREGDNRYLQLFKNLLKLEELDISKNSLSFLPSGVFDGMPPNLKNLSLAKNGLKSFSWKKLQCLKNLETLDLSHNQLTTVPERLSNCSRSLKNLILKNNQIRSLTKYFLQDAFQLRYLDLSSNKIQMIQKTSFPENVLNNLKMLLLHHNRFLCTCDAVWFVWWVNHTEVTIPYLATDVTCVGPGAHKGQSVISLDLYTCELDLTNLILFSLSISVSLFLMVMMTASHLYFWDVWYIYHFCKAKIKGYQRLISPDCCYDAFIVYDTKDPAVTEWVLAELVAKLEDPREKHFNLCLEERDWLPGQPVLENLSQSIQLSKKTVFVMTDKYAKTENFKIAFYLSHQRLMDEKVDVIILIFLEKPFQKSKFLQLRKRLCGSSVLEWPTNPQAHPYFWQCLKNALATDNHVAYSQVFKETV
From the text: as §1, §2, §3, §4

Compound | EC50 [1] [nM] | EC50 [2] [nM]
CCCCc1nc2c(N)nc3cc(CCCN4CCN(CCCOCCOCCOCCOCCNC(=O)O[C@H]5CC[C@@]6(C)C(=CC[C@H]7[C@@H]8CC[C@H]([C@H](C)CCCC(C)C)[C@@]8(C)CC[C@@H]76)C5)CC4)ccc3c2n1CC(C)(CO)CO [Compound 22, (20R)-cholest-5-en-3beta-yl {15-[4-(3-{4-amino-2-butyl-1-[3-hydroxy-2-(hydroxymethyl)-2-methylpropyl]-1H-imidazo[4,5-c]quinolin-7-yl}propyl)piperazin-1-yl]-3,6,9,12-tetraoxapentadecan-1-yl}carbamate] | 11700 | 1160
CCCCc1nc2c(N)nc3cc(CCCN4CCN(Cc5ccc(NC(=O)[C@H](C)NC(=O)[C@@H](NC(=O)COCCOCCNC(=O)O[C@H]6CC[C@@]7(C)C(=CC[C@H]8[C@@H]9CC[C@H]([C@H](C)CCCC(C)C)[C@@]9(C)CC[C@@H]87)C6)C(C)C)cc5)CC4)ccc3c2n1CC(C)(CO)CO [Compound 27, (3beta)-cholest-5-en-3-yl {(2S,5S)-1-((4-((4-(3-(4-amino-2-butyl-1-(3-hydroxy-2-(hydroxymethyl)-2-methylpropyl)-1H-imidazo[4,5-c]quinolin-7-yl)propyl)piperazin-1-yl)methyl)phenyl)amino)-5-isopropyl-2-methyl-1,4,7-trioxo-9,12-dioxa-3,6-diazatetradecan-14-yl}carbamate] | 2970 | 3100
CCCCc1nc2c(N)nc3cc(CCCN4CCN(C(=O)CCOCCOCCOCCOCCOCCOCCOCCOCCOCCOCCOCCOCCNC(=O)O[C@H]5CC[C@@]6(C)C(=CC[C@H]7[C@@H]8CC[C@H]([C@H](C)CCCC(C)C)[C@@]8(C)CC[C@@H]76)C5)CC4)ccc3c2n1CC(C)(CO)CO [Compound 20, (20R)-cholest-5-en-3beta-yl {39-[4-(3-{4-amino-2-butyl-1-[3-hydroxy-2-(hydroxymethyl)-2-methylpropyl]-1H-imidazo[4,5-c]quinolin-7-yl}propyl)piperazin-1-yl]-39-oxo-3,6,9,12,15,18,21,24,27,30,33,36-dodecaoxanonatriacontan-1-yl}carbamate] | 21800 | 443

Continued, values first:

EC50 [1] [nM] | EC50 [2] [nM] | Compound
14400 | 140 | CCCCc1nc2c(N)nc3cc(CCCN4CCN(CCCOCCOCCOCCOCCOCCOCCOCCOCCOCCOCCOCCOCCOCCOCCOCCOCCOCCOCCOCCOCCNC(=O)O[C@H]5CC[C@@]6(C)C(=CC[C@H]7[C@@H]8CC[C@H]([C@H](C)CCCC(C)C)[C@@]8(C)CC[C@@H]76)C5)CC4)ccc3c2n1CC(C)(CO)CO [Compound 7, (3beta)-cholest-5-en-3-yl {63-[4-(3-{4-amino-2-butyl-1-[3-hydroxy-2-(hydroxymethyl)-2-methylpropyl]-1H-imidazo[4,5-c]quinolin-7-yl}propyl)piperazin-1-yl]-3,6,9,12,15,18,21,24,27,30,33,36,39,42,45,48,51,54,57,60-icosaoxatrihexacont-1-yl}carbamate]
731 | 150 | CCCCc1nc2c(N)nc3cc(CCCN4CCN(C(=O)CCOCCOCCOCCOCCOCCOCCOCCOCCOCCOCCOCCOCCOCCOCCOCCOCCOCCOCCOCCOCCOCCOCCOCCOCCNC(=O)CCOCCOCCOCCOCCOCCOCCOCCOCCOCCOCCOCCOCCOCCOCCOCCOCCOCCOCCOCCOCCOCCOCCOCCOCCNC(=O)O[C@H]5CC[C@@]6(C)C(=CC[C@H]7[C@@H]8CC[C@H]([C@H](C)CCCC(C)C)[C@@]8(C)CC[C@@H]76)C5)CC4)ccc3c2n1CC(C)(CO)CO [Compound 8, (3beta,20R)-cholest-5-en-3-yl {151-[4-(3-{4-amino-2-butyl-1-[3-hydroxy-2-(hydroxymethyl)-2-methylpropyl]-1H-imidazo[4,5-c]quinolin-7-yl}propyl)piperazin-1-yl]-75,151-dioxo-3,6,9,12,15,18,21,24,27,30,33,36,39,42,45,48,51,54,57,60,63,66,69,72,79,82,85,88,91,94,97,100,103,106,109,112,115,118,121,124,127,130,133,136,139,142,145,148-octatetracontaoxa-76-azahenpentacontahect-1-yl}carbamate]

Source: US20250135006A1, “AMPHIPHILIC TLR7/8 ADJUVANTS AND USES THEREOF” (Pfizer Inc., priority 2023, published 2025)
